Data reported in patent US8394825B2, “Compound” (Sterix Limited, priority 2007, dated 2013).

System: not given
Assay: not given
Conditions: not given

melting point [°C]	Structure (SMILES)
134 to 138	COC(=O)c1ccccc1S(=O)(=O)N1CCc2cc(O)c(OC)cc2C1 [186A, 7-Methoxy-2-(2-(methoxycarbonyl)benzenesulfonyl)-6-hydroxy-1,2,3,4-tetrahydroisoquinoline]
61 to 86	COc1ccc(OC)c(C(=O)N2CCc3cc(O)ccc3C2)c1 [B7, 2-(2,5-Dimethoxybenzoyl)-1,2,3,4-tetrahydroisoquinolin-6-ol]
170 to 171	COc1ccc(CCN2CCc3cc(O)c(OC)cc3C2)cc1 [compound 46, 6-Hydroxy-7-methoxy-2-(4-methoxyphenethyl)-1,2,3,4-tetrahydroisoquinoline]
70 to 72	COc1cc(OC)c(C(=O)N2CCc3cc(OCc4ccccc4)c(OC)cc3C2)c(OC)c1 [F1, 6-Benzyloxy-7-methoxy-2-(2,4,6-trimethoxybenzoyl)-1,2,3,4-tetrahydroisoquinoline]
97 to 99	COc1cccc(CN2CCc3cc(O)c(OC)cc3C2C)c1 (centres unmarked) [compound 253, 2-(3-Methoxybenzyl)-1,2,3,4-tetrahydro-7-methoxy-1-methylisoquinolin-6-ol]
132 to 133	COc1cc2c(cc1OCc1ccccc1)CCN(Cc1cccc(NS(C)(=O)=O)c1)C2 [compound 36, 6-(Benzyloxy)-2-(3-methanesulfonylaminobenzyl)-7-methoxy-1,2,3,4-tetrahydroisoquinoline]
92 to 93	COc1cccc(CC2CCCc3cc(OCc4ccccc4)c(OC)cc3N2)c1 (centres unmarked) [compound 303, 7-Benzyloxy-8-methoxy-2-(3-methoxybenzyl)-2,3,4,5-tetrahydro-1H-benzoazepine]
129 to 131	COc1cc(OC)c(CN2CCc3cc(OCc4ccccc4)c(OC)cc3C2)c(OC)c1 [F2, 6-Benzyloxy-7-methoxy-2-(2,4,6-trimethoxybenzyl)-1,2,3,4-tetrahydroisoquinoline]
63 to 87	Oc1ccc2c(c1)CCN(Cc1ccc3c(c1)OCO3)C2 [B2, 2-Piperonyl-1,2,3,4-tetrahydroisoquinolin-6-ol]
167 to 172	COc1cccc(C(=O)N2CCc3cc(O)ccc3C2)c1OC [B9, 2-(2,3-Dimethoxybenzoyl)-1,2,3,4-tetrahydroisoquinolin-6-ol]
149 to 150	COc1cc2c(cc1O)CCN(CC(=O)c1ccc(OC)c(OC)c1)C2 [compound 53, 2-(2-(3,4-Dimethoxyphenyl)-2-oxoethyl)-6-hydroxy-7-methoxy-1,2,3,4-tetrahydroisoquinoline]
98 to 99	COc1ccc(CN2CCc3cc(OCc4ccccc4)c(OC)cc3C2)cc1OC [compound 18, 6-Benzyloxy-7-methoxy-2-(3,4-dimethoxybenzyl)-1,2,3,4-tetrahydroisoquinoline]
114 to 115	COc1cccc(CN2CCCc3cc(O)c(OC)cc3C2)c1 [compound 307, 7-Hydroxy-8-methoxy-2-(3-methoxybenzyl)-2,3,4,5-tetrahydro-1H-benzo[e]azepine]

System: DU145 cells
Assay: Antiproliferative assay in DU145 cells, WST-1 cell proliferation assay, 96 hours (GI50)
Format: cell-based
Conditions: 96 hours post-treatment, 50% growth inhibition, read-out: DU-145 GI50
Experimental: Antiproliferative assays. DU145 cells were seeded into 96 well microtiter plates (5000 cells/well) and treated with […] of compounds or with vehicle control. At 96 hours post-treatment, live cell counts were determined by WST-1 cell proliferation assay (Roche, Penzberg, Germany), as per manufacturer's instructions. Viability results were expressed as a percentage of mean control values resulting in the calculation of the 50% growth inhibition (GI50). All experiments were performed in triplicate.

GI50 [µM]	Structure (SMILES)
< 10	COc1cc(CN2Cc3cc(OC)c(OS(N)(=O)=O)cc3CC2C)cc(OC)c1 (centres unmarked) [compound 221, 2-(3,5-dimethoxy-benzyl)-7-methoxy-3-methyl-1,2,3,4-tetrahydro-isoquinolin-6-O-sulfamate]
< 10	COc1cc2c(cc1OS(N)(=O)=O)CC(C)N(Cc1cc(OC)c(OC)c(OC)c1)C2 (centres unmarked) [compound 222, 2-(3,4,5-Trimethoxybenzyl)-1,2,3,4-tetrahydro-7-methoxy-3-methylisoquinolin-6-O-sulfamate]
> 100	COc1cccc(S(=O)(=O)N2CCc3cc(OS(N)(=O)=O)c(OC)cc3C2=O)c1 [compound 205, 7-Methoxy-2-(3-methoxy-benzenesulfonyl)-6-O-sulfamoyl-3,4-dihydro-2H-isoquinolin-1-one]

Same assay, conditions: 96 hours post-treatment, triplicate, read-out: DU-145 GI50

GI50 [µM]	Structure (SMILES)
> 100	COc1cccc(CN2CCc3cc(OS(N)(=O)=O)c(OC)cc3C2)c1 [compound 166, 7-Methoxy-2-(3-methoxybenzyl)-6-O-sulfamoyl-3,4-dihydro-2H-isoquinoline]
< 10	COc1ccc(C(=O)N2CCc3cc(OS(N)(=O)=O)c(OC)cc3C2=O)cc1OC [compound 151, 2-(3,4-Dimethoxybenzoyl)-7-methoxy-6-O-sulfamoyl-3,4-dihydro-2H-isoquinolin-1-one]
50 to 100	COc1cc2c(cc1OS(N)(=O)=O)CCN(Cc1cccc(O)c1)C2 [compound 97, 2-(3-Hydroxybenzyl)-7-methoxy-6-O-sulfamoyl-1,2,3,4-tetrahydroisoquinoline]
> 100	COc1ccc(C(=O)N2CCc3cc(OS(N)(=O)=O)c(OC)cc3C2=O)cc1 [compound 147, 2-(4-Methoxybenzoyl)-7-methoxy-6-O-sulfamoyl-3,4-dihydro-2H-isoquinolin-1-one]
> 100	COc1cc2c(cc1OS(N)(=O)=O)CCN(Cc1cccc(NC(C)=O)c1)C2 [compound 85, 2-(3-Acetamidobenzyl)-7-methoxy-6-O-sulfamoyl-1,2,3,4-tetrahydroisoquinoline]
> 100	COc1cc2c(cc1OS(N)(=O)=O)CCN(S(=O)(=O)c1ccccc1OC)C2 [compound 194, 7-Methoxy-2-(2-methoxy-benzenesulfonyl)-6-O-sulfamoyl-1,2,3,4-tetrahydroisoquinoline]
10 to 50	COc1cc2c(cc1OS(N)(=O)=O)CCN(C(=O)c1cccc(C#N)c1)C2=O [compound 153, 2-(3-Cyanobenzoyl)-7-methoxy-6-O-sulfamoyl-3,4-dihydro-2H-isoquinoline-1-one]
> 100	COc1ccc(CN2CCc3cc(OS(N)(=O)=O)c(OC)cc3C2)cc1 [compound 164, 7-Methoxy-2-(4-methoxybenzyl)-6-O-sulfamoyl-3,4-dihydro-2H-isoquinoline]
10 to 50	COc1cc2c(cc1OS(N)(=O)=O)CCN(C(=O)c1ccccc1OC)C2 [compound 122, 7-Methoxy-2-(2-methoxybenzoyl)-6-O-sulfamoyl-1,2,3,4-tetrahydroisoquinoline]
< 10	COc1ccccc1CN1CCc2cc(OS(N)(=O)=O)c(OC)cc2C1 [compound 75, 7-Methoxy-2-(2-methoxybenzyl)-6-O-sulfamoyl-1,2,3,4-tetrahydroisoquinoline]
< 10	CCOc1cccc(CN2CCc3cc(OS(N)(=O)=O)c(OC)cc3C2)c1 [compound 80, 2-(3-Ethoxybenzyl)-7-methoxy-6-O-sulfamoyl-1,2,3,4-tetrahydroisoquinoline]
< 10	COc1cc2c(cc1OS(N)(=O)=O)CCN(Cc1cccc(OC(F)(F)F)c1)C2 [compound 102, 7-Methoxy-2-(3-trifluoromethoxybenzyl)-6-O-sulfamoyl-1,2,3,4-tetrahydroisoquinoline]
< 10	COc1cc2c(cc1OS(N)(=O)=O)CCN(Cc1cc(OC)c(OC)c(OC)c1)C2 [compound 90, 7-Methoxy-2-(3,4,5-trimethoxybenzyl)-6-O-sulfamoyl-1,2,3,4-tetrahydroisoquinoline]
< 10	COc1ccc(C(=O)N2CCc3cc(OS(N)(=O)=O)c(OC)cc3C2)cc1 [compound 124, 7-Methoxy-2-(4-methoxybenzoyl)-6-O-sulfamoyl-1,2,3,4-tetrahydroisoquinoline]
50 to 100	COc1ccc(CN2CCc3cc(OS(N)(=O)=O)c(OC)cc3C2)cc1 [compound 73, 7-Methoxy-2-(4-methoxybenzyl)-6-O-sulfamoyl-1,2,3,4-tetrahydroisoquinoline]
> 100	COc1cc(CN2CCc3cc(OS(N)(=O)=O)c(OC)cc3C2=O)cc(OC)c1 [compound 167, 2-(3,5-Dimethoxybenzyl)-7-methoxy-6-O-sulfamoyl-3,4-dihydro-2H-isoquinolin-1-one]
> 100	COc1cc2c(cc1OS(N)(=O)=O)CCN(S(=O)(=O)c1cccc(C#N)c1)C2 [compound 187, 2-(3-Cyano-benzenesulfonyl)-7-methoxy-6-O-sulfamoyl-1,2,3,4-tetrahydroisoquinoline]
> 100	COc1ccccc1CN1CCc2cc(OS(N)(=O)=O)c(OC)cc2C1 [compound 165, 7-Methoxy-2-(2-methoxybenzyl)-6-O-sulfamoyl-3,4-dihydro-2H-isoquinoline]
< 10	COc1cc(CN2CCc3cc(OS(N)(=O)=O)c(OC)cc3C2)cc(OC)c1 [compound 76, 2-(3,5-Dimethoxybenzyl)-7-methoxy-6-O-sulfamoyl-1,2,3,4-tetrahydroisoquinoline]

Same assay, conditions: Homo sapiens, DU-145, 96 hours post-treatment, 50% growth inhibition

GI50 [µM]	Structure (SMILES)
> 100	COc1cccc(CN2Cc3cc(OC)c(OS(N)(=O)=O)cc3CC2(C)C)c1 [compound 230, 2-(3-Methoxybenzyl)-1,2,3,4-tetrahydro-7-methoxy-3,3-dimethylisoquinolin-6-yl sulfamate]

Same assay, conditions: Homo sapiens, DU-145, 96 hours post-treatment, triplicate

GI50 [µM]	Structure (SMILES)
10 to 50	COc1ccc(OC)c(CN2CCc3cc(OCc4ccccc4)c(OC)cc3C2)c1 [compound 21, 6-Benzyloxy-7-methoxy-2-(2,5-dimethoxybenzyl)-1,2,3,4-tetrahydroisoquinoline]
> 100	COc1cc2c(cc1OCc1ccccc1)CCN(C(=O)c1ccc(C#N)cc1)C2=O [compound 136, 6-(Benzyloxy)-2-(4-cyanobenzoyl)-7-methoxy-3,4-dihydro-2H-isoquinoline-1-one]
> 100	COc1cc2c(cc1OCc1ccccc1)CCN(S(=O)(=O)c1cccc(Cl)c1)C2 [compound 173, 6-Benzyloxy-2-(3-chloro-benzenesulfonyl)-7-methoxy-1,2,3,4-tetrahydroisoquinoline]
> 100	COc1cc2c(cc1O)CCN(Cc1cccc(C)c1)C2 [compound 44, 6-Hydroxy-7-methoxy-2-(3-methylbenzyl)-1,2,3,4-tetrahydroisoquinoline]

Structure (SMILES)	GI50 [µM]
COc1ccc(CN2CCc3cc(O[Si](C(C)C)(C(C)C)C(C)C)c(OC)cc3C2=O)cc1 [compound 154, 7-Methoxy-2-(4-methoxybenzyl)-6-(triisopropylsilyloxy)-3,4-dihydro-2H-isoquinolin-1-one]	> 100
